Common to all, as to type: cell-based, human
Assay [1] deals with NAG-1. Kind of assay: Northern blot analysis of NAG-1 mRNA expression in HCT-116 cells. The settings on record: for NAG-1 Induction (mRNA) Fold: HCT-116, 24 hr in absence of serum, relative NAG-1 mRNA over vehicle control (1.0), tested over the concentration range listed; for NAG-1 expression induction: HCT-116, at any concentration tested. As to the method: Upon reaching 60–80% confluence in 10 cm plates, the cells were treated at indicated concentrations and times with either different NSAIDs or PPARγ ligands in the absence of serum. Total RNAs were isolated using TRIzol reagent (Life Technologies) according to the manufacturer's protocol. For Northern blot analysis, […] of total RNA was denatured at 55° C. for 15 min and separated in a 1.2% agarose gel containing 2.2 M formaldehyde, and transferred to Hybond-N membrane ([…]). After fixing the membrane by UV, blots were prehybridized in hybridization solution (Rapid-hyb buffer, […]) for 1 hr at 65° C. followed by hybridization with cDNA labeled with [α-^32P]dCTP by random primer extension (DECAprimeII kit, Ambion). The probes used were either full-length NAG-1 fragment or PTGFB clone (generously provided by Dr. Bento-Soar of the University of Iowa). After 4 hr incubation at 65° C., the blots were washed once with 2×SSC/0.1% SDS at RT and twice with 0.1×SSC/0.1% SDS at 65° C. Messenger RNA abundance Was estimated by intensities of the hybridization bands of autoradiographs using Scion Image (Scion). Equivalent loading of RNA samples was confirmed by hybridizing the same blot with a ^32P-labeled b-actin probe which recognizes RNA of approximately 2 kb.
To determine whether other NSAIDs increased apoptosis and NAG-1 expression, tests were conducted to determine whether variants of NSAIDs induced NAG-1 gene expression and NSAID-induced apoptosis. Aspirin, ibuprofen, indomethacin, and sulindac sulfide were selected since they are known COX inhibitors. […] HCT-116 cells were treated with different NSAIDs (vehicle, 0.2% DMSO; aspirin, 10 mM; ibuprofen, 1 mM; sodium salicylate, 5 mM; sulindac sulfide, 50 μM; sulindac, 40 μM; acetaminophen, 100 μM) for 24 hr in the absence of serum. Northern analysis was performed using NAG-1 and β-actin as probes. Total RNAs were isolated from NSAID-treated HCT-116 cells after 24 hr treatment and Northern blot was performed using NAG-1 cDNA as a probe (data not shown). […] Each of the doses were as follows: aspirin (1, 5, 10 mM); ibuprofen (100, 500, 1000 μM); salicylate (1, 2.5, 5 mM); sulindac sulfide (1, 10, 50 μM); sulindac (10, 20, 40 μM); acetaminophen (10, 50, 100 μM). After 48 hr treatment with NSAIDs in the presence of serum, cells were harvested and assayed as described in FIG. 1C. Apoptosis detected by PI staining was measured by FACS, as known in the art (FIG. 2A; HCT-116 cells were treated with different NSAIDs (vehicle, 0.2% DMSO; Aspirin, 10 mM; Ibuprofen, 1 mM; Sodium Salicylate, 5 mM; Sulindac Sulfide, 50 μM; Sulindac, 40 μM; Acetaminophen, 100 μM) for 24 hr in the absence of serum. Northern analysis was performed using NAG-1 and β-actin as probes. The open bars represent the relative expression of NAG-1 mRNA over the control (vehicle). The hatched bars represent the relative apoptosis ratio over vehicle treatment by PI staining methods. N=3±S.D.).
In the Table below, HCT-116 cells were treated with different NSAIDs (vehicle, 0.2% DMSO) for 24 hr in the absence of serum. Northern analysis was performed using NAG-1 and β-actin as probes. The data represent relative expression of NAG-1 mRNA over the control (1.0). Each NSAID was tested at 3 different concentrations and maximally effective concentration used for apoptosis determination. Apoptosis ratio by PI staining was measured by FACS. After 48 hr treatment with NSAIDs in the presence of serum, cells were harvested and assayed. The data represent relative apoptosis ratio over vehicle treatment by PI staining methods. TACS™ Annexin V-FITC kit was also used to confirm apoptosis.

Another assay relates to NAG-1 promoter. The assay can be described thus: NAG-1 promoter (pNAG2021) luciferase reporter assay in transiently transfected HCT-116 cells. The settings on record: pNAG2021 in HCT-116, 24 hr; TGZ 10 μM, sulindac 40 μM, acetaminophen 100 μM, other NSAIDs; versus vehicle.
The subject of a further assay is HCT-116 cells. Kind of assay: Apoptosis and cell cycle by PI staining / FACS in HCT-116 cells. The settings on record: for Apoptosis (PI Staining), relative apoptosis ratio over vehicle: HCT-116, 48 hr in presence of serum, maximally effective concentration, FACS. As to the method:
To determine whether NAG-1 gene expression is associated with NSAID-induced apoptosis or altered cell cycle kinetics, flow cytometric analysis of the distribution of cells at various stages of the cell cycle was performed. Apoptosis and cell cycle kinetics of INDO-treated HCT-116 cells were measured at different time points. HCT-116 cells were treated with INDO, stained with PI, and analyzed by flow cytometry. Seven thousand five hundred cells were examined by flow cytometry by gating on an area versus width dot plot to exclude cell debris and cell aggregates. Apoptosis is represented by the fold increase in sub-G1 population over 0 hr treatment.
The DNA content for NSAIDs, PPARγ ligand, and vehicle treated HCT-116 cells was determined by FACS. Cells were plated at a density of 4×10^5 cells/well in 2 ml of medium in 6 well plates, incubated for 16 h, and then treated with NSAIDs or TGZ in the presence of serum. After treatment, the cells were harvested, washed with PBS, fixed by the slow addition of cold 70% ethanol to a total of 1 ml, and stored overnight at 4° C. The fixed cells were pelleted, washed once with PBS, and stained in 1 ml of 20 μg/ml of propidium iodide (PI), 1 mg/ml RNase in PBS for 20 min. Seven thousand five hundred cells were examined by flow cytometry using Becton Dickinson FACSort equipped with CellQuest software, by gating on an area versus width dot plot to exclude cell debris and cell aggregates. Each cell cycle distribution was analyzed by the McCycle program using one cell cycle parameter. Apoptosis was measured based on the level of sub-diploid DNA contained in cells following treatment with NSAIDs or TGZ using CellQuest software.
Northern analysis was performed using NAG-1 and β-actin as probes. The data represent relative expression of NAG-1 mRNA over the control (1.0). Each NSAID was tested at 3 different concentrations and maximally effective concentration used for apoptosis determination. Apoptosis ratio by PI staining was measured by FACS. […] The data represent relative apoptosis ratio over vehicle treatment by PI staining methods. TACS™ Annexin V-FITC kit was also used to confirm apoptosis.

Assay [2] has as its system NAG-1. The assay can be described thus: Western blot analysis of secreted NAG-1 protein from HCT-116 cells. The settings on record: HCT-116, 5 μM TGZ. The method, then: The level of secreted NAG-1 was evaluated using Western blot analysis with anti-human-NAG-1 antibody (generously provided by Dr. Paralkar of Pfizer). HCT-116 cells were grown to 60–80% confluency in 10 cm plates followed by 48 hr treatment in the absence of serum with either NSAIDs or TGZ. The media were harvested and concentrated approximately 15-fold using Centriprep 10 concentrators (Amicon). Proteins (30 μg) were separated by 15% SDS-PAGE and transferred for 1 hr onto nitrocellulose membrane (Schleicher & Schuell). The blots were blocked for 1 hr with 5% skim milk in TBS/Tween 0.05%, and probed with anti-NAG-1 antibody (1 μg/ml in TBS-0.2%-Tween20) at […] overnight. After washing, the blots were treated with horseradish peroxidase-conjugated secondary antibody for 1 hr and washed several times. The signal was detected by enhanced chemiluminescence system (AMERSHAM) and autoradiography.
HCT-116 cells were treated with 100 μM INDO in the absence of serum for various times. In FIG. 1B, left panel. 10 μg of total RNA was loaded in each lane. Northern blotting was performed using the NAG-1 probe and re-probed with β-actin probe. The hybridization signals were quantitated using Scion Image software (Scion). Levels of the 1.3 kb NAG-1 transcript were normalized to the levels of β-actin transcripts and represented relative to 0 hr treatment. […] The signal was detected by ECL reagent (AMERSHAM).
A general note: Immunoblotting shows a protein as a band on a membrane.

For `CCCCC/C=C/C=C1/C(=O)C=C[C@@H]1C/C=C\CCCC(=O)O` [15d-PGJ2, 15-deoxy-Δ^12,14-prostaglandin J2], in the assay on NAG-1 [1] (HCT-116, 1 μM), the “Induction of NAG-1 gene expression” value is 3 fold.
Consider `CC(=O)Nc1ccc(O)cc1` [Acetaminophen], for which the “Induction of luciferase reporter activity (2021 bp NAG-1 promoter)” value (from here on “Induction … (2021 bp NAG-1 promoter)”) in the assay on NAG-1 promoter is “did not increase luciferase activity”. Further, in the assay with HCT-116 cells, the “Apoptosis (PI Staining), relative apoptosis ratio over vehicle” value was 0.9 ± 0.153. Also, in the assay on NAG-1 [1], the “NAG-1 Induction (mRNA) Fold” value is on record as 0.9 Fold and the NAG-1 expression induction result is “did not induce NAG-1 expression”.
As for `Cc1ccc(-c2cc(C(F)(F)F)nn2-c2ccc(S(N)(=O)=O)cc2)cc1` [Celecoxib], in the assay on HCT-116 cells, the “Apoptosis (PI Staining), relative apoptosis ratio over vehicle” value is 0.722 ± 0.098. Also, the “NAG-1 Induction (mRNA) Fold” value in the assay with NAG-1 [1] is listed as 1.0 Fold.
In the same order, the values of `CC1(C)OC(=O)C(c2cccc(F)c2)=C1c1ccc(S(C)(=O)=O)cc1` [DFU] are 0.54 ± 0.091 and 1.0 Fold.
In the same order, the values of `O=C(O)Cc1ccccc1Nc1c(Cl)cccc1Cl` [Diclofenac] are 4.0 ± 0.315 and 3.7 Fold.
Consider `CC(C)Cc1ccc(C(C)C(=O)O)cc1` (stereo not drawn) [Ibuprofen], for which, in the assay on HCT-116 cells, the “Apoptosis (PI Staining), relative apoptosis ratio over vehicle” value was determined as 4.3 ± 0.666. The “NAG-1 Induction (mRNA) Fold” value in the assay with NAG-1 [1] came out at 4.5 Fold.
For `CS(=O)(=O)Nc1ccc([N+](=O)[O-])cc1OC1CCCCC1` [NS-398], in that order: 1.029 ± 0.109 and 0.9 Fold.
For `CN1C(C(=O)Nc2ccccn2)=C(O)c2ccccc2S1(=O)=O` [Piroxicam], in that order: 1.9 ± 0.145 and 2.5 Fold.
`O=C([O-])c1ccccc1O.[Na+]` [Sodium Salicylate]: the “Apoptosis (PI Staining), relative apoptosis ratio over vehicle” value in the assay on HCT-116 cells came out at 1.8 ± 0.252. The “NAG-1 Induction (mRNA) Fold” value in the assay with NAG-1 [1] stood at 3.0 Fold.
On to `CSc1ccc(/C=C2/C(C)=C(CC(=O)O)c3cc(F)ccc32)cc1` [Sulindac Sulfide], for which the “Apoptosis (PI Staining), relative apoptosis ratio over vehicle” value with HCT-116 cells is 4.3 ± 0.737. For the same compound, the “NAG-1 Induction (mRNA) Fold” value in the assay with NAG-1 [1] is 4.6 Fold.
For `CC1=C(CC(=O)O)c2cc(F)ccc2/C1=C\c1ccc(S(C)(=O)=O)cc1` [Sulindac Sulfone], the “Apoptosis (PI Staining), relative apoptosis ratio over vehicle” value in the assay on HCT-116 cells was found to be 1.6 ± 0.043. Besides, in the assay with NAG-1 [1], the “NAG-1 Induction (mRNA) Fold” value was 1.3 Fold.
As for `CC1=C(CC(=O)O)c2cc(F)ccc2/C1=C\c1ccc([S+](C)[O-])cc1` (stereo not drawn) [Sulmdac, Sulindac], the “Induction … (2021 bp NAG-1 promoter)” value in the assay with NAG-1 promoter is recorded as “did not increase luciferase activity”. In addition, the “Apoptosis (PI Staining), relative apoptosis ratio over vehicle” value with HCT-116 cells came out at 1.1 ± 0.173. In the assay on NAG-1 [1], the “NAG-1 Induction (mRNA) Fold” value is reported as 1.5 Fold and the NAG-1 expression induction result is “did not induce NAG-1 expression”.
Regarding `Cc1c(C)c2c(c(C)c1O)CCC(C)(COc1ccc(CC3SC(=O)NC3=O)cc1)O2` (stereo not drawn) [TGZ, Troglitazone], the “Induction … (2021 bp NAG-1 promoter)” value in the assay on NAG-1 promoter is listed as 3 fold. Further, in the assay with HCT-116 cells (HCT-116, presence of serum, TGZ 5 μM), the “Earliest time at which apoptosis was observed” value was determined as 12 h. Also, the “Time point at which G1 arrest was seen” value in the assay with HCT-116 cells (HCT-116, TGZ 5 μM) worked out at 12 h. In addition, the “Induction of NAG-1 gene expression” value with NAG-1 [1] (HCT-116, 5 μM) came to 3 fold. Moreover, the “Earliest time at which increase in NAG-1 mRNA was observed” value with NAG-1 [1] (HCT-116, 5 μM TGZ) stood at 3 h. In addition, the “Time at which increase in NAG-1 protein was observed” value in the assay on NAG-1 [2] was determined as 6 h.

The values are drawn from US7141661B2, “Non-steroidal anti-inflammatory drug activated gene with anti-tumorigenic properties” (The United States of America as represented by the …, priority 2000, dated 2006).
